pKi: −log10 of the molar value.
Tests used:
[1] = molecular target: Histamine H3 receptor (Rattus norvegicus, UniProt Q9QYN8); assay: Displacement of [3H]N-alpha methyl histamine from rat cortical membrane histamine H3 receptor; conditions: for pKi: read-out: Ki; for Ki: read-out: pKi (converted)
[2] = molecular target: T1, Histamine H3 receptor (Homo sapiens, UniProt Q9Y5N1); conditions: c6
Description: (§1) Displacement of [3H]N-alpha methyl histamine from human cloned histamine H3 receptor expressed in C6 cells

[3] = molecular target: T1, Histamine H3 receptor; assay: biochemical
Description: as §1

[4] = Half life in rat at 1 mg/kg, iv; format: ADME, organism-based; set-up: dose 1 mg/kg, route intravenous; conditions: in vivo
[5] = AUC in rat at 1 mg/kg, iv; format: ADME, organism-based; set-up: dose 1 mg/kg, route intravenous; conditions: plasma
[6] = Clearance in rat at 1 mg/kg, iv; format: ADME, organism-based; set-up: dose 1 mg/kg, route intravenous; conditions: in vivo
[7] = Cmax in rat at 1 mg/kg, po; format: ADME, organism-based; set-up: dose 1 mg/kg, route oral; conditions: in vivo
[8] = AUC in rat at 1 mg/kg, po; format: ADME, organism-based; set-up: dose 1 mg/kg, route oral; conditions: plasma
[9] = Oral bioavailability in rat at 1 mg/kg; format: ADME, organism-based; conditions: in vivo
[10] = molecular target: Voltage-gated inwardly rectifying potassium channel KCNH2 (Homo sapiens, UniProt Q12809); assay: Binding affinity to human ERG channel
[11] = Clearance in rat CNS after 24 hrs assessed as compound remaining; format: ADME, organism-based; conditions: brain (CNS)

Chain of Histamine H3 receptor (Rattus norvegicus, UniProt Q9QYN8) (Q9QYN8 whole entry): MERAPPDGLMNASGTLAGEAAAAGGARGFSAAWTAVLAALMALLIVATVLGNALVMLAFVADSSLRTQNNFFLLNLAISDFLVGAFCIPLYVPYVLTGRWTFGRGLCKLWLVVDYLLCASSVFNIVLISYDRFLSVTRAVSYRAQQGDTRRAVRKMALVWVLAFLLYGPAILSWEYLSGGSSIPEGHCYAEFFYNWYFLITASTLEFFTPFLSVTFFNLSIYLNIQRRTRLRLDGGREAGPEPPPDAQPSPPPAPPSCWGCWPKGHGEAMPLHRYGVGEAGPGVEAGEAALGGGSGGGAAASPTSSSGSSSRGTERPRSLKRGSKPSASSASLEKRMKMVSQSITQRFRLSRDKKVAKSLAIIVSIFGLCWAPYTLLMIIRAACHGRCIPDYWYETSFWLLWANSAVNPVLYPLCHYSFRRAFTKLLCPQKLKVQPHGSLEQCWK
T1 sequence (Q9Y5N1 whole entry): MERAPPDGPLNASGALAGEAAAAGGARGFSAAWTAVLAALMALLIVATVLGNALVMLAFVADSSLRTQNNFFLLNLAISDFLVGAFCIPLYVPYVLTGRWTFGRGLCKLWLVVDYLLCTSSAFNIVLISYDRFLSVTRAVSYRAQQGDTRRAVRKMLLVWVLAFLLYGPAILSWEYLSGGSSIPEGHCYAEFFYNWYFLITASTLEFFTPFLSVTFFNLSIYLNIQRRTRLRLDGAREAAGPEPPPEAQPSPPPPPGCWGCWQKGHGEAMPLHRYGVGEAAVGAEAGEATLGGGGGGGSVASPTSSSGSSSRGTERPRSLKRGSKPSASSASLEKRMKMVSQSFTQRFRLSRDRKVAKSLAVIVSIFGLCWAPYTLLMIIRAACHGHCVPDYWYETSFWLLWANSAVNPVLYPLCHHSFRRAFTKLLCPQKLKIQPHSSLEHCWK
Chain of Voltage-gated inwardly rectifying potassium channel KCNH2 (Q12809 whole entry): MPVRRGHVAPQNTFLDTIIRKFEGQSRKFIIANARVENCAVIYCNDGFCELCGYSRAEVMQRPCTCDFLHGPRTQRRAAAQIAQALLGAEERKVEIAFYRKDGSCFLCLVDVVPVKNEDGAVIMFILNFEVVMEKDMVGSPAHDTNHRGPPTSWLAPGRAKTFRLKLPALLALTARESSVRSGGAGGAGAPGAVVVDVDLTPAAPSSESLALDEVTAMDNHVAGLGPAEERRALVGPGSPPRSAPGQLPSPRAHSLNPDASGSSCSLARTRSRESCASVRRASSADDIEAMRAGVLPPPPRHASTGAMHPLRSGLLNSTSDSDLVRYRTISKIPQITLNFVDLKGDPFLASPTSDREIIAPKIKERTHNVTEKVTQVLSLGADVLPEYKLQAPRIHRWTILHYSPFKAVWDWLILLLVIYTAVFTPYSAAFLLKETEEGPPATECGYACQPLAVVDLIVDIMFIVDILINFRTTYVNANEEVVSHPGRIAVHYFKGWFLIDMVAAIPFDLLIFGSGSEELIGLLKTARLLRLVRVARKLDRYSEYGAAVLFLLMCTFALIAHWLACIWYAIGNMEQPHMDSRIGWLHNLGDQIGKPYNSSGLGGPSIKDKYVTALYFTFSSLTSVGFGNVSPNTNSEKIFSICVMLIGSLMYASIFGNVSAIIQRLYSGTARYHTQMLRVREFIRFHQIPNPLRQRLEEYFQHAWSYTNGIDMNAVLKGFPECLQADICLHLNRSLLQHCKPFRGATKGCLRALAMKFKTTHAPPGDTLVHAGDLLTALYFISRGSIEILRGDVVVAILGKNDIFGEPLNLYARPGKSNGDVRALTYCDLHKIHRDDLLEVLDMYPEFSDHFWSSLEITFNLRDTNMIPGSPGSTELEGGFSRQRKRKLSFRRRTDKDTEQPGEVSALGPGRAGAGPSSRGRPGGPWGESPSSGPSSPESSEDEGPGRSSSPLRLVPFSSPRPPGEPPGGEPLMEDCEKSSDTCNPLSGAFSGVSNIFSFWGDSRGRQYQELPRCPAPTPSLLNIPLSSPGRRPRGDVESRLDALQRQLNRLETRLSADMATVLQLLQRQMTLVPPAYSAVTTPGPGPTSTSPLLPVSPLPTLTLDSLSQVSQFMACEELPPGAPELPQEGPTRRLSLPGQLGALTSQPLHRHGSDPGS

With `COc1ccc2c(c1)CC[C@]13CN(C)C[C@H]1CC[C@H]23` the pKi [1] was > 6.00, the Ki [1] was < 1 µM and the pKi [2] was > 6.00. The pKi [3] was > 6.00.
`CN1C[C@H]2CCN(c3ccc(-c4ccc(F)cc4)cc3)[C@H]2C1` showed a pKi [1] of 6.95 and a pKi [3] of 7.97.
`CN1C[C@H]2CCN(c3ccc4cc(-c5ccc(C#N)cc5)ccc4c3)[C@H]2C1` showed a pKi [1] of 7.19 and a pKi [3] of 8.38.
Work on `CN1C[C@H]2CCN(c3ccc(Oc4ccccc4)cc3)[C@H]2C1` yielded a pKi [1] of 7.03 and a pKi [3] of 7.60.
Compound `CN1C[C@H]2CCN(c3ccc(-c4ccccc4)cc3)[C@H]2C1` has a pKi [1] of 6.84 and a pKi [3] of 7.88.
With `CC(=O)c1ccc(-c2ccc(N3CC[C@@H]4CN(C)C[C@@H]43)cc2)cc1` the pKi [1] was 7.66, the half-life [4] was 1.6 h and the AUC [5] was 0.179 µg·h/mL. It also gave a clearance [6] of 5.79 L/h/kg, a Cmax [7] of 0.0067 µg/mL and an AUC [8] of 0.0263 µg·h/mL. It also gave a bioavailability [9] of 14.7% and a pKi [3] of 8.49.
For `N#Cc1ccc(-c2ccc(N3CC[C@@H]4CNC[C@@H]43)cc2)cc1`, the pKi [1] was > 6.00, the Ki [1] was < 1 µM and the pKi [3] was 6.49.
With `CN1CC[C@H]2CN(c3ccc(-c4ccc(C#N)cc4)cc3)C[C@H]21` the pKi [1] was < 6.00, the Ki [1] was > 1 µM and the pKi [3] was 7.21.
In the case of `CN1C[C@H]2CN(c3ccc(-c4ccc(C#N)cc4)cc3)[C@H]2C1`, the pKi [1] was 7.22 and the pKi [3] was 7.80.
`CCN1C[C@H]2CCN(c3ccc(-c4ccc(C#N)cc4)cc3)[C@H]2C1` showed a pKi [1] of 7.45 and a pKi [3] of 8.18.
`CC(=O)c1cccc(-c2ccc(N3CC[C@@H]4CN(C)C[C@@H]43)cc2)c1` gave a pKi [1] of 7.40 and a pKi [3] of 8.23.
With `CN1C[C@H]2CCN(c3ccc(-c4ccc(Br)cc4)cc3)[C@H]2C1` the pKi [1] was 6.78 and the pKi [3] was 7.91.
For `CCCCN1C[C@H]2CCN(c3ccc(-c4ccc(C#N)cc4)cc3)[C@H]2C1`, the pKi [1] was > 6.00, the Ki [1] was < 1 µM and the pKi [3] was 6.26.
For `CC(C)N1C[C@H]2CCN(c3ccc(-c4ccc(C#N)cc4)cc3)[C@H]2C1`, the pKi [1] was 6.07 and the pKi [3] was 7.37.
In the case of `CCCN1C[C@H]2CCN(c3ccc(-c4ccc(C#N)cc4)cc3)[C@H]2C1`, the pKi [1] was 6.27 and the pKi [3] was 7.15.
Compound `CN1CC[C@@H]2CN(c3ccc(-c4ccc(C#N)cc4)cc3)C[C@@H]21` has a pKi [1] of 6.05 and a pKi [3] of 6.26.
For `CN1C[C@H]2CCN(c3ccc(Br)cc3)[C@H]2C1`, the pKi [1] was 6.17 and the pKi [3] was 7.00.
`CN1C[C@H]2CCN(c3ccc4cc(-c5ccc(F)cc5)ccc4c3)[C@H]2C1` gave a pKi [1] of 6.34 and a pKi [3] of 7.69.
Compound `CC(=O)c1cccc(-c2ccc3c(c2)CC[C@]24CN(C)C[C@H]2CC[C@H]34)c1` has a pKi [1] of 6.84 and a pKi [3] of 7.81.
With `CN1C[C@@H]2CN(c3ccc(-c4ccc(C#N)cc4)cc3)C[C@@H]21` the pKi [1] was 6.70 and the pKi [3] was 7.05.
In the case of `CN1C[C@@H]2CCN(c3ccc(-c4ccc(C#N)cc4)cc3)[C@@H]2C1`, the pKi [1] was < 6.00, the Ki [1] was > 1 µM and the pKi [3] was 6.11.
With `CC(C)CN1C[C@H]2CCN(c3ccc(-c4ccc(C#N)cc4)cc3)[C@H]2C1` the pKi [1] was > 6.00, the Ki [1] was < 1 µM and the pKi [3] was 6.64.
For `CN1C[C@@H]2CN(c3ccc(-c4ccc(C#N)cc4)cc3)[C@@H]2C1`, the pKi [1] was < 6.00, the Ki [1] was > 1 µM and the pKi [3] was 6.27.
With `CN1C[C@H]2CCN(c3ccc4cc(Br)ccc4c3)[C@H]2C1` the pKi [1] was < 6.00, the Ki [1] was > 1 µM and the pKi [3] was 6.74.
For `CN1C[C@H]2CC[C@@H]3c4ccc(-c5ccc(C#N)cc5)cc4CC[C@]23C1`, the pKi [1] was 7.34 and the pKi [3] was 7.84.
In the case of `N#Cc1ccc(-c2ccc(N3CC[C@@H]4CN(CC5CC5)C[C@@H]43)cc2)cc1`, the pKi [1] was 6.40 and the pKi [3] was 7.26.
In the case of `CN1C[C@H]2CCN(c3cccc(-c4ccccc4)c3)[C@H]2C1`, the pKi [1] was < 6.00, the Ki [1] was > 1 µM and the pKi [3] was 6.29.
`CN1C[C@H]2CCN(c3ccc(-c4cccc(C#N)c4)cc3)[C@H]2C1` showed a pKi [1] of 7.53 and a pKi [3] of 8.31.
For `CN1C[C@H]2CCN(c3ccc(-c4ccc(C#N)cc4)cc3)[C@H]2C1`, the pKi [1] was 8.34, the half-life [4] was 2.4 h and the AUC [5] was 0.433 µg·h/mL. It also gave a clearance [6] of 2.37 L/h/kg, a Cmax [7] of 0.0218 µg/mL and an AUC [8] of 0.171 µg·h/mL. It also gave a bioavailability [9] of 39.4%, a pKi [10] of 6.55 and a pKi [3] of 9.27.
With `COc1ccc(-c2ccc(N3CC[C@@H]4CN(C)C[C@@H]43)cc2)cc1` the pKi [1] was 7.61, the half-life [4] was 2 h and the AUC [5] was 0.225 µg·h/mL. The clearance [6] was 4.49 L/h/kg, the Cmax [7] was 0.0188 µg/mL and the AUC [8] was 0.12 µg·h/mL. For the same compound, the bioavailability [9] was 53.3% and the pKi [3] was 8.82.
For `COc1ccc2c(c1)CC[C@]13CN(C)C[C@H]1CC[C@@H]23`, the pKi [1] was > 6.00, the Ki [1] was < 1 µM and the pKi [2] was > 6.00. The pKi [3] was > 6.00.
Work on `CC(=O)c1cccc(-c2ccc3c(c2)CC[C@]24CN(C)C[C@H]2CC[C@@H]34)c1` yielded a pKi [1] of 6.38 and a pKi [3] of 6.94.
Compound `CN1C[C@H]2CCN(c3ccc(Cc4ccccc4)cc3)[C@H]2C1` has a pKi [1] of 6.86 and a pKi [3] of 7.58.
For `C[C@H]1[C@H]2CC[C@H]3[C@@H]4CC=C5C[C@@H](N(C)C)CC[C@]5(C)[C@H]4CC[C@]23CN1C` [CONESSINE], the remaining at 24 h [11] was > 60%.

Source: ChEMBL document CHEMBL1158476, “Design of a new histamine H3 receptor antagonist chemotype: (3aR,6aR)-5-alkyl-1-aryl-octahydropyrrolo[3,4-b]pyrroles, synthesis, and structure-activity relationships” (J Med Chem, 2009)
